In patent US20230226137A1, “Novel Pharmaceutical Composition for Treating Dry Eye Syndrome” (Novacell Technology Inc., priority 2020, published 2023) one finds IC50 and EC50 data, which are given here for 5 compounds.

Common to all, as to type: cell-based
Assay [1] deals with Staphylococcus aureus. To be noted: 18 h. Here is the method:
(§1) In addition, in order to measure the antibacterial activity of the peptide, Staphylococcus aureus, which is a gram-positive bacterium, and Pseudomonas aeruginosa, which is a gram-negative bacterium, were prepared, followed by 4th smearing on a flat medium of an agar, and culturing was performed overnight in a 36° C. incubator. The next day, strain colonies generated on the agar plate medium were inoculated into 3 mL-nutrient broth and cultured overnight in a shaking incubator at 36° C. and 220 rpm. The next day, the bacteria were diluted to measure absorbance at 600 nm, the absorbance was adjusted to 0.5, and the bacteria were diluted in a nutrient broth at a ratio of 1:100. Then, the peptides prepared in the Example were sequentially diluted in a nutrient broth at concentrations of 0, 1.25, 2.5, 5, 10, 20, and 40 μM, prepared 1 mL each, and then 1 mL of the diluted bacteria was inoculated. Then, the mixture was stirred at 36° C. and 220 rpm and incubated for 18 hours, and then the absorbance was measured at 600 nm.

Assay [2] deals with Pseudomonas aeruginosa. The following applies: 18 h. As for the experimental part: as §1
The target in assay [3] is T1, FPR2 (Homo sapiens, UniProt P25090).
T1 construct: expressed in transfected cells; host or cells: RBL cells (FPR2-overexpressing)
T1 sequence (P25090 1-351): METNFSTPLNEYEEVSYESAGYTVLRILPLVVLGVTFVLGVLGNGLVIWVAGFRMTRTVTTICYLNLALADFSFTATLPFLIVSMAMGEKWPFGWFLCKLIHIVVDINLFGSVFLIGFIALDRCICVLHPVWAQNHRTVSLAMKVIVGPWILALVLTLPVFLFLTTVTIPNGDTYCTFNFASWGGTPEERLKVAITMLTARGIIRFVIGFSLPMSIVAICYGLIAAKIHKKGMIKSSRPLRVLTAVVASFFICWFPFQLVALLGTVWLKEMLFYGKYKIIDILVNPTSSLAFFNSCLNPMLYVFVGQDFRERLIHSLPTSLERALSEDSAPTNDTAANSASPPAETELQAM
The experiment in a line: FPR2 activation, intracellular calcium (Fura-2/AM) in RBL cells overexpressing FPR2. To be noted: calcium ion increase in FPR2-overexpressing RBL cells. As for the experimental part:
The present inventors have observed changes in calcium ion permeability in order to confirm whether or not the immunomodulatory and antibacterial peptide candidates of the present invention activates the immunomodulatory function of a living organism. Specifically, the concentration of calcium ions in cells was measured in order to confirm whether the peptide activates FPR2. To this end, the present inventors used RBL cells in which FPR2 was not expressed, RBL cells in which FPR1 was overexpressed (FPR1-RBL), and RBL cells in which FPR2 was overexpressed, and used Fura-2/AM, a staining material having a strong binding affinity for calcium, in a method for sensitively measuring free intracellular calcium ions. That is, the cells were cultured in RPMI medium containing 10% fetal bovine serum, centrifuged in the mid-log phase (1-3×10^7 cells/mL), and harvested. Then, the cells were washed several times with RPMI medium containing no fetal bovine serum and resuspended in RPMI medium to a concentration of 1×10^7 cells/mL. Then, the Fura-2/AM at a final concentration of 3 μM was added thereto and incubated in an incubator (37° C., 5% CO2) for 45 minutes with continuous stirring. After the appropriate time elapsed, the cells were harvested and washed again several times with RPMI medium. Then, the cells were suspended in an appropriate amount of RPMI medium, in which sulfinpyrazone was supplemented at a concentration of 250 μM, so as to prevent the Fura-2 that entered into the cells from being released to the outside of the cells. Approximately 2×10^6 cells were taken each time and harvested by rapid centrifugation and resuspended in 1 mL of Locke solution in which EGTA was added but no calcium ions were added, and the absorbance ratios at two wavelengths of 340 nm and 380 nm were monitored on a spectrophotometer. After treating with the peptide according to the present invention at different concentrations (1 μM, 0.1 μM, and 0.01 μM) at intervals of about 1 minute, the difference in absorbance at two wavelengths was examined and this was later converted to the concentration of calcium ions freed into the cells according to the method of Grynkiewicz.
A general note: A change in cytosolic calcium serves as a functional read-out for many receptors and channels.

Non-standard residues stand in square brackets, D forms with d. Residues, ends and D or L forms follow the SMILES beside them. *: point of attachment. Octanoyl = CCCCCCCC(=O)*

Turning to `CCCCCCCC(=O)N[C@@H](CCCCN)C(=O)N[C@@H](Cc1ccccc1)C(=O)N[C@@H](CCCCN)C(=O)N[C@@H](Cc1c[nH]c2ccccc12)C(=O)N[C@@H](CCCNC(=N)N)C(=O)N[C@@H](Cc1ccc(O)cc1)C(=O)N[C@H](CCSC)C(N)=O` [compound 2] (Octanoyl-KFKWRY[dM]-NH2), the IC50 (as a rule, the point on the concentration scale where inhibition reaches its midpoint) in assay [1] came to 21 µM; in assay [2] it was 4.69 µM. The EC50 (commonly the concentration that produces a half-maximal response) in assay [3] was found to be 92.9 nM.
For `CCCCCCCC(=O)N[C@@H](CCCCN)C(=O)N[C@@H](Cc1c[nH]c2ccccc12)C(=O)N[C@@H](CCCCN)C(=O)N[C@@H](Cc1c[nH]c2ccccc12)C(=O)N[C@@H](CCCNC(=N)N)C(=O)N[C@@H](Cc1ccc(O)cc1)C(=O)N[C@H](CCSC)C(N)=O` [compound 4] (Octanoyl-KWKWRY[dM]-NH2), the IC50 in assay [1] came out at 12.3 µM; in assay [2] it was 8.48 µM. For the same compound, the EC50 in assay [3] is 108 nM.
For `CSCC[C@@H](NC(=O)[C@H](Cc1ccc(O)cc1)NC(=O)[C@H](CCCNC(=N)N)NC(=O)[C@H](Cc1c[nH]c2ccccc12)NC(=O)[C@H](CCCNC(=N)N)NC(=O)[C@H](Cc1c[nH]c2ccccc12)NC(=O)[C@@H](N)CCCNC(=N)N)C(N)=O` [compound 6] (H-RWRWRY[dM]-NH2) the same measures were 39.9 µM, 6.43 µM and 30.3 nM.
For `CSCC[C@@H](NC(=O)[C@H](Cc1ccc(O)cc1)NC(=O)[C@H](CCCNC(=N)N)NC(=O)[C@H](Cc1c[nH]c2ccccc12)NC(=O)[C@H](CCCCN)NC(=O)[C@H](Cc1ccccc1)NC(=O)[C@@H](N)CCCCN)C(N)=O` [compound 3] (H-KFKWRY[dM]-NH2) the same measures were 19.8 µM, 7.41 µM and 65.4 nM.
`CCCCCCCC(=O)N[C@@H](CCCNC(=N)N)C(=O)N[C@@H](Cc1c[nH]c2ccccc12)C(=O)N[C@@H](CCCNC(=N)N)C(=O)N[C@@H](Cc1c[nH]c2ccccc12)C(=O)N[C@@H](CCCNC(=N)N)C(=O)N[C@@H](Cc1ccc(O)cc1)C(=O)N[C@H](CCSC)C(N)=O` [compound 5] (Octanoyl-RWRWRY[dM]-NH2): the IC50 in assay [1] worked out at 4.86 µM; in assay [2] it was 25.4 µM. For the same compound, the EC50 in assay [3] turned out to be 90.7 nM.
